Patent US20210220340A1, “COMPOSITION FOR PREVENTION OR TREATMENT OF NEURODEGENERATIVE DISEASE” (THE ASAN FOUNDATION, priority 2018, published 2021)

Columns and labels:
[1] = tested on: amyloid beta-accumulated pericytes and astrocytes; experiment: Amyloid beta expression pattern on AMX treatment (western blotting); assay type: cell-based, mouse; settings: amyloid beta injected and accumulated in pericytes and astrocytes, then AMX
Method: For astrocyte culture, first, cerebral cortices (neocortices) were dissociated from murine fetuses (3 weeks old), and the obtained cortical tissue was divided into single cells. […] New cells were cultured and used each time without passaging.
Each type of cell was cultured under the culture conditions, a cell culture was restored, followed by preparing a particulate fraction in a 50 mM Tris buffer. Proteins obtained from the cell culture developed in a SDS polyacrylamide gel, transferred to an immobilon-P membrane (Millipore, USA), and reacted with antibodies overnight. Next day, western blots were washed, reacted with peroxidase-linked secondary antibodies at room temperature for 1 hour, followed by staining bands with 4-chloro-1-naphthol.
FIG. 16 is a graph representing the percent activity (% activity) according to the concentrations of finally selected amlexanox (AMX) for various PDE isoforms, and FIGS. 17 and 18 show western blotting images representing the amyloid beta expression pattern and G93A SOD-1 and P301L tau expression when amyloid beta-accumulated pericytes and astrocytes are treated with the finally selected amlexanox (AMX).

PDE3 = experiment: HTS drug screening for PDE3 (PDELight HTS cAMP Phosphodiesterase Kit, luminescence); assay type: biochemical; settings: compared with conventional drugs
Method: For drug screening, high-throughput screening (HTS) was used.
In addition, as described above, in the present invention, to screen materials for treating neurodegenerative diseases such as Alzheimer's disease and Lou Gehrig's disease, among PDE isoforms, PDE3 was selected as a target, and an optimized concentration to be used in the experiment was selected to construct a drug screening system as shown in FIG. 9.
Compounds included in the library of 800 FDA-approved drugs were diluted 1/4 from a concentration of 100 μM and dispensed into each well in 96-well plates, and mixed with a PDE reactant to allow a PDE reaction with the drug for 1 hour at a constant temperature.
For drug efficacy screening for PDE inhibition, HTS was used. cAMP-based screening was conducted with an FDA-approved drug library and a Selleckchem library based on the conventional PDE inhibitor. The experiment was carried out in the same manner as used in screening of the FDA-approved drug library. Compared with cilostazol, which is known as a PDE3 inhibitor, drugs with high inhibitory activity were selected. […] After a stop solution was mixed with a AMP detection agent, the mixture was dispensed at 20 μl per well to allow a reaction for 10 minutes, followed by immediately measuring luminescence, and the experiment was performed according to a protocol provided by the kit used herein.

cathepsin L = experiment: Lysosomal function activity in astrocytes: degree of hydrolysis of cathepsin L; assay type: cell-based, mouse; settings: bafilomycin A1-treated mouse astrocytes
Method: (§1) Samples stained with enzymatic dyes such as cathepsin B and cathepsin L were administered into the cell culture to allow a reaction for 30 minutes, and changes in activity of lysosomes in cells were confirmed using a confocal microscope.
(§2) Astrocytes were stained with a fluorescence-tagged lysosomal protein, and the degrees of hydrolysis of cathepsin B and cathepsin L, which are lysosomal proteins, were analyzed.
(§3) FIG. 21 is a set of time-dependent confocal microscope images of mouse astrocytes, which are treated with bafilomycin A1, which is a vATPase inhibitor, to assess the degree of hydrolysis of cathepsin B (top) and cathepsin L (bottom).

GFP-tagged mHttQ protein = experiment: GFP-mHttQ aggregation (GFP antibody); assay type: cell-based; settings: cells injected with GFP-tagged mHttQ protein, AMX
Method: A GFP-tagged mHttQ protein was injected into cells, thereby confirming a pharmacological reaction mediated by AMX using a GFP antibody. The accumulation of mHttQ in cells through aggregation was confirmed by GFP expression.

G93A SOD-1 mice = experiment: Survival rate and motor behaviour in Lou Gehrig's disease animal model; assay type: in vivo, mouse
Text: G93A SOD-1 mice in which a mutant protein of the ALS-related gene SOD-1 (the expression of an amino acid at codon 93, in which glycine is substituted with alanine) of a human were used as Lou Gehrig's disease animal models. The G93A SOD-1 mice were purchased by the Jackson Laboratory (USA).
In the animal models of Lou Gehrig's disease, spinal motor neuron death occurs, causing limb paralysis at one or both sides. The clinical scoring system was differentiated using the following neurological scoring system.
The mice were euthanized at 0 points (Weydt et al. 2003). In the Lou Gehrig's disease animal models, which is one of the neurodegenerative disease models, a vehicle or amlexanox (AMX) was intraperitoneally administered at 2.5 mg/kg once daily for 5 days, and then a survival rate was measured through a behavioral experiment.
The behavioral experiment was performed on each of the AMX-administered group and the control (Veh) once or twice a week before symptoms occur until death. A method of gradually increasing a speed from 4 rpm to 40 rpm and a method of exercising at a constant speed of 15 rpm for 10 minutes were selected. The time to fall off from a rod was recorded to analyze the difference between the AMX-administered group and the control group.
Changes in survival rate were confirmed by intraperitoneal injection into G93A-SOD mice daily at various AMX concentrations.

cathepsin B = experiment: Lysosomal function activity in astrocytes: degree of hydrolysis of cathepsin B; assay type: cell-based, mouse; settings: bafilomycin A1-treated mouse astrocytes
Method: as §1, §2, §3

5×FAD mice = experiment: Morris water maze test (hidden platform test and probe test) in Alzheimer's disease animal model; assay type: in vivo, mouse
Method: To confirm whether amlexanox (AMX; Z007) is effective even for animal models, an experiment was conducted using 5×FAD mice, which is one of the Alzheimer-type dementia animal models. Here, the 5×FAD mice, which is one of the Alzheimer-type dementia animal models, were provided in Korea and used.
Drug administration and behavioral evaluation were conducted on the same schedule as in FIG. […] Immediately after the end of the administration, a Morris water maze test, which is a behavioral experiment that can evaluate memory and learning ability, was conducted.
The Morris water maze test was performed as described in Behay. Brain Res. (155, 185-196) (refer to Behay. Brain Res., 155, 185-196). A water tank used in the water maze test is a cylindrical tank with a diameter of 90 cm and a height of 60 cm, and filled with water in which milk powder is diluted at 23±2[…] during a test period. In the tank, a transparent platform was installed 1 cm below the water surface, and four signs were placed outside the tank. The motion trajectory of a mouse was analyzed through a video tracking system (Smart3.0, Panlab, USA).
During the trial period, the mice were placed into the water tank at four randomly selected starting points toward the side where the platform was not shown. In each trial, an escape latency, which is the time to find the platform after the mouse is put into the water tank, was recorded, and when finding the platform, the mouse was allowed to stay on the platform for 10 seconds and then moved to a home cage. […] Each trial was performed four times a day for 5 days.
A probe test was conducted on the last […] of the test. After the platform was removed, the test was performed by allowing a mouse to swim in a water tank for 60 seconds and recording the time to first enter the location of the platform and how many times the mouse passed the location.

[2] = G93A-SOD mice, AMX at various concentrations, compared with untreated control
[3] = 1 mg/kg and 2.5 mg/kg intraperitoneal, compared with Veh group

With `CC(C)c1ccc2oc3nc(N)c(C(=O)O)cc3c(=O)c2c1` [amlexanox, 2-amino-7-isopropyl-5-oxo-5H-[1]benzopyrano[2,3-b] pyridine-3-carboxylic acid] the “aggregation of amyloid beta protein” value [1] was “inhibited”, the “inhibitory effect specific for PDE3” value (PDE3) was “significant inhibitory effect” and the “time to restore lysosomal activity of cathepsin L to the original state” value (cathepsin L) was no more than 60 min. For the same molecule, the “GFP expression (aggregated GFP-mHttQ protein)” value (GFP-tagged mHttQ protein) was “decrease”, the survival rate (G93A SOD-1 mice; G93A SOD-1 mice, 2.5 mg/kg intraperitoneal once daily 5 days a week from week 10) was 130.2 ± 2.0 days and the onset of ataxia (G93A SOD-1 mice; [2]) was “slower”. The progression of ataxia (G93A SOD-1 mice; [2]) was “reduced”, the survival rate (G93A SOD-1 mice; G93A-SOD mice, daily intraperitoneal injection at various AMX concentrations, compared with Veh group) was “concentration-dependently increased” and the “time to restore lysosomal activity of cathepsin B to the original state” value (cathepsin B) was no more than 60 min. For the same molecule, the “number of passing the target point” value (5×FAD mice; [3]) was “increases”, the “time to find the target point” value (5×FAD mice; [3]) was “increase” and the “memory and learning ability” value (5×FAD mice; AMX-administered) was “improved”.
